Reference: ChEMBL document CHEMBL1139531, “Synthesis and biological evaluation of dihydromotuporamine derivatives in cells containing active polyamine transporters” (J Med Chem, 2005)

The compounds below were run on L1210 (assay: Inhibition of murine L1210 leukemia cell proliferation, high polyamine transporter activity). Details: Mus musculus.
Type: functional, cell-based

| Compound | IC50 [µM] |
| --- | --- |
| NCCCCNCCCCN1CCCCCCCCCCCCCC1 | 18.5 |
| NCCCNCCCN1CCCCCCCCCCCCCC1 | 3 |
| CCN(CCCCNCCCCN)Cc1c2ccccc2cc2ccccc12.Cl.Cl.Cl | 22.2 |
| Cl.Cl.Cl.NCCCNCCCNCc1c2ccccc2cc2ccccc12 | 1.8 |

Each compound was assayed on CHO-MG (assay: Inhibition of MGBG-resistant CHO-MG cell proliferation, no polyamine transporter activity). Details: Cricetulus griseus.
Type: functional, cell-based

| Compound | IC50 [µM] |
| --- | --- |
| NCCCCNCCCCN1CCCCCCCCCCCCCC1 | 28.2 |
| NCCCNCCCN1CCCCCCCCCCCCCC1 | 10 |
| CCN(CCCCNCCCCN)Cc1c2ccccc2cc2ccccc12.Cl.Cl.Cl | 21.9 |
| Cl.Cl.Cl.NCCCNCCCNCc1c2ccccc2cc2ccccc12 | 3.4 |

What follows are compounds tested on L1210 (assay: Affinity for cellular polyamine transporter system as inhibition [14C]spermidine uptake in L1210 cells). Details: not given.
Type: functional, cell-based, Mus musculus

| Compound | Ki [µM] |
| --- | --- |
| NCCCCNCCCCN1CCCCCCCCCCCCCC1 | 6.2 |
| NCCCNCCCN1CCCCCCCCCCCCCC1 | 9.9 |
| CCN(CCCCNCCCCN)Cc1c2ccccc2cc2ccccc12.Cl.Cl.Cl | 24.4 |
| Cl.Cl.Cl.NCCCNCCCNCc1c2ccccc2cc2ccccc12 | 33.4 |

What follows are compounds tested on CHO (assay: Inhibition of chinese hamster ovary cell proliferation, high polyamine transporter activity). Details: Cricetulus griseus.
Type: functional, cell-based

| Compound | IC50 [µM] |
| --- | --- |
| NCCCCNCCCCN1CCCCCCCCCCCCCC1 | 30 |
| NCCCNCCCN1CCCCCCCCCCCCCC1 | 10.5 |
| CCN(CCCCNCCCCN)Cc1c2ccccc2cc2ccccc12.Cl.Cl.Cl | 22.2 |
| Cl.Cl.Cl.NCCCNCCCNCc1c2ccccc2cc2ccccc12 | 1.9 |
| Cl.Cl.Cl.NCCCCNCCCCNCc1c2ccccc2cc2ccccc12 | 0.45 |

Each compound was assayed on CHO-MG (assay: Relative inhibition of CHO-MG and chinese hamster ovary cell proliferation). Details: not given.
Type: functional

| Compound | Ratio |
| --- | --- |
| NCCCCNCCCCN1CCCCCCCCCCCCCC1 | 1 |
| NCCCNCCCN1CCCCCCCCCCCCCC1 | 1 |
| CCN(CCCCNCCCCN)Cc1c2ccccc2cc2ccccc12.Cl.Cl.Cl | 1 |
| Cl.Cl.Cl.NCCCNCCCNCc1c2ccccc2cc2ccccc12 | 1.8 |
| Cl.Cl.Cl.NCCCCNCCCCNCc1c2ccccc2cc2ccccc12 | 148 |
